Measurements as given in patent US9050353B2, “Use of icariin and epimedium flavonoids containing icariin to treat diseases associated with myelin sheath lesion” (Xuanwu Hospital of Capital Medical University, priority 2010, dated 2015).

Columns and labels:
CNPase [1] = assay: Spinal cord CNPase by Western blot, EAE mice; format: in vivo; conditions: positive control drug, dose not given
Procedure: (§1) Preparation of mice model and administration: experimental autoimmune encephalomyelitis (EAE) mice model is an important tool for studying various human demyelinating diseases of nervous system. In the present experiment, the preparation of EAE mice model was performed by immunizing female C57BL/6J mice with myelin sheath oligodendroglial cell surface glycoprotein MOG35-55. That is, the mice were subcutaneously injected at dorsal part of spinal column with 0.2 mL of MOG35-55 antigen elixir, and 0.2 ml of bordetella pertussis solution was intraperitoneally injected at the time of immunization injection and 48 h thereafter, respectively. Icariin was intragastrically administered after the last injection of bordetella pertussis solution, for consecutive 3 weeks.
(§2) Experimental objective: myelin sheath is formed with prominences of oligodendroglial cells. CNPase, myelin basic protein (MBP) are marker proteins of mature oligodendroglial cells. The present experiment was to observe the expression of CNPase and MBP to represent the content of oligodendroglial cells in spinal cord of EAE model mice by Western blot method; and to study the effects of icariin on it.
(§3) Experimental method: the mice were anesthetized and sacrificed, fresh spinal cord was taken on ice, total protein was extracted by cleavage on ice, to prepare Western blot sample, added separately with CNPase, MBP primary antibodies and incubated, added with corresponding secondary antibodies, ECL colorated, Kodak film exposed. Pictures were analyzed with Image J software and standardized with β-actin.

CNPase [2] = assay: CNPase positive cells of spinal cord lumbar intumescentia by immunohistochemical method, EAE rats; format: in vivo; conditions: positive control drug, dose not given
Procedure: (§4) Preparation of rat model and administration: experimental autoimmune encephalomyelitis (EAE) model is an important tool for studying various human demyelinating diseases of nervous system. In the example, the preparation of EAE rat model was performed by multipoint immunizing female Lewis rats subcutaneously at tail root with a homogenate of spinal cord and cerebral gray matter of Guinea pig as well as complete Freund's adjuvant after emulsification. They were intragastrically administered with Epimedium flavanoids for 3 weeks.
Experimental objective: myelin sheath is formed with prominences of oligodendroglial cells. 2′3′-cyclic […]-3′-phosphodiesterase (CNPase) is a marker protein of mature oligodendroglial cells. In this experiment, CNPase content of cerebral cortex in EAE rat model was measured by Western blot method, CNPase content of spinal cord lumbar intumescentia was measured by immunohistochemical method; and the effects of Epimedium flavanoids on these contents were observed.
Experimental method: the rats were anesthetized with 10% chloral hydrate on the 14th day of experiment, fixed by perfusion of 4% paraformaldehyde, spinal cord tissues were taken for frozen section. […] Pictures were analyzed using Image Pro plus5.0 software to count positive cells.

[3] = test system: peripheral blood CD4+ and CD8+ T cells; assay: Peripheral blood T cell subgroup by flow cytometer, EAE mice; format: in vivo; conditions: positive control drug, dose not given
Procedure: as §1
Experimental objective: one common feature of autoimmune diseases is the […]. In this experiment, the numbers of CD4+ and CD8+ cells in peripheral blood T cell subgroup of EAE mice mode were measured by flow cytometer (FACS), and the ratio of them was obtained; and the effects of icariin on these changes were observed.
Experimental method: mice were anesthetized with pentobarbital sodium, blood sample was taken from abdominal aorta, stood at room temperature for 2 h, centrifuged at 3000 rpm for 20 min, and cells were taken, added with anti-CD4+, CD8+ T cell antibodies with different markers, then the percentages of CD4+, CD8+ cells in T lymphocytes were measured by flow cytometer, and the CD4+/CD8+ T cells ratio was calculated.

[4] = test system: inflammatory cell infiltration of spinal cord lumbar intumescentia in EAE rat model; assay: Inflammatory cell infiltration of spinal cord lumbar intumescentia, HE staining, EAE rats; format: in vivo; conditions: positive control drug, dose not given, scale 0-4
Procedure: as §4, with “weeks. […]” for “weeks.”
Experimental method: the rats were anesthetized with 10% chloral hydrate on the 14th day of experiment, fixed by perfusion of 4% paraformaldehyde, spinal cord tissues were taken for making paraffin sections, section thickness 4 μm. (1) Stained with LFB, observed under microscope, and scored according to the following standard: 0 score, absence of myelinoclasis; 1 score, one small range of myelinoclasis; 2 score, 2 or 3 small ranges of myelinoclasis; 3 score, 1 to 2 large ranges of myelinoclasis; 4 score, large ranges of myelinoclasis accumulatively existing in 20% or more of white matter regions. […]

[5] = test system: myelin basic protein (MBP); assay: Spinal cord MBP by Western blot, EAE mice; format: in vivo; conditions: positive control drug, dose not given
Procedure: as §1, §2, §3

[6] = test system: Brain-derived neurotrophic factor (BDNF); assay: BDNF of spinal cord lumbar intumescentia by immunohistochemical method, EAE rats; format: in vivo; conditions: positive control drug, dose not given
Procedure: as §4
Experimental objective: neurotrophic factors are important substances for constituting nerve regeneration microenvironment. Brain-derived neurotrophic factor (BDNF) is an important neurotrophic factor, can promote the regeneration and plerosis of myelin sheath. In this experiment, BDNF content of spinal cord lumbar intumescentia in EAE rat model was measured by immunohistochemical method, and the effects of Epimedium flavanoids on the content was observed.
Experimental method: the rats were anesthetized with 10% chloral hydrate, fixed by perfusion of 4% paraformaldehyde, spinal cord tissues were taken for frozen section. Incubated with BDNF primary antibody, added with corresponding secondary antibody and third antibody, DAB colorated, observed under microscope, and pictures were analyzed using Image Pro plus5.0 software.

[7] = test system: experimental autoimmune encephalomyelitis (EAE) mice model; assay: Nervous function damage score in EAE mice model; format: in vivo, C57BL/6J mice; conditions: peak of attack, positive control drug, dose not given, scale 0-5
Procedure: as §1
Nervous function test method: the ethological changes of mice were observed by two experimenters every day using blind method. Scoring standard: 0 score, absence of symptom; 1 score, decrease of tail tension, evident slight gait awkward; 2 score, disappearance of tail tension, moderate gait abnormal, deficient in maintaining gesture; 3 score, limb strength weak; 4 score, limb paralysis; 5 score, near death or died.

CC(=O)OCC(=O)[C@@]1(O)CC[C@H]2[C@@H]3CCC4=CC(=O)C=C[C@]4(C)[C@H]3C(=O)C[C@@]21C [prednisone acetate]
CNPase/actin Integration grey level (CNPase [1]): 1.20 ± 0.01
CNPase positive cell count (CNPase [2]): 1378.2 ± 125.4
CD4 + T cells [3]: 30.45 ± 8.77%
CD4 +/CD8 + ratio [3]: 0.52 ± 0.23
CD8 + T cells [3]: 60.62 ± 5.58%
Inflammatory cell infiltration (HE staining score) [4]: 1.00 ± 0.29
MBP/actin Integration grey level [5]: 1.05 ± 0.11
integrated optical density of BDNF positive cell [6]: 3.64 ± 0.23 ×10^5
total area of BDNF positive cell [6]: 9.43 ± 1.12 ×10^5
Nervous function damage score [7]: 0.89 ± 0.28
